Tests used:
[1] = test system: MPTP-treated mice; assay: MPTP mouse model; format: in vivo; details: SNc, western blot, FIG. 17B
Protocol: A) Schematic for experiments in panels B-K. C57BL/6 mice (8 week-old) received 4 i.p. injections of MPTP (20 mg/kg at 2 hr intervals) or vehicle on day 0. […] N=6. […] Quantification of TH protein normalized to control (C,D). N=6. E-G) Example of immunostaining of TH in SNc and striatum (E, scale bars, 500 μm SNc, 1 mm striatum). Quantification of TH-positive neurons in SNc (F) and TH intensity in the striatum (G). N=6. H,I) Dopamine (DA) content in striatum and SnC. N=6. J) Percentage of TH-positive neurons that were positive for TUNEL staining. N=6. K) Behavioral response of mice in rotarod test. Data are duration that mice remained on an accelerated rolling rod normalized to mice at day 0. N=8. Data are examples and mean±SEM. […] Statistical analysis at day 7 and day 14 was Mann-Whitney. In the figure, *p<0.05, **p<0.01.
FIG. 10. […] A) Schematic of experiments in panels B-F. C57BL/6 mice (8 week-old) received 4 i.p. injections of MPTP (20 mg/kg at 2 hr intervals) or vehicle on day 0. […] B,C) Pyruvate and ATP levels in mouse SNc. N=6. D) Mitochondrial DNA (mDNA, 16S and ND1) relative to nuclear DNA (nDNA, intron β-globin) by quantitative PCR of mouse striatum and SNc. N=3. E,F) VDAC (E) and PHB1 (F) protein levels in striatum and SNc assayed by western blot and normalized to control. N=6.
FIG. 12. […] A) Schematic for experiments in panels B-J. C57BL/6 mice (8 week-old) received 4 i.p. injections of MPTP (20 mg/kg at 2 hr intervals) or vehicle on day 0. […] B) Example of TH immunostaining in the SNc on days 7 and 14. Scale bar, 500 μm. C-F) Measurement of DOPAC in mouse striatum (C) and SNc (D) and measurement of HVA in striatum (E) and SNc (F). (N=6). G) Example of TH and TUNEL co-staining in the SNc. TH (green), TUNEL (red), and DAPI (nuclei, blue). Scale bar, 25 μm. Quantitative data are in FIG. 2J. H) Left panels are Nissl staining of neurons in the striatum. Samples were obtained 7 days after MPTP injection. Right panels show the quantification. […] Scale bar, 400 μm. N=3 per group. I,J) Behavioral response of mice in the pole test. (I) Time mice took to turn their heads from upward to downward. (J) Time mice took to climb down the pole. N=8.
MPTP was injected (i.p.) on one day at 20 mg/kg for four times at 2-hour intervals, as previously described (4). […] At the end of the drug or saline treatment, behavioral tests including rotarod test and pole test were carried out before the animals were sacrificed.
The rotarod test was carried out using an automated rotarod (E103, UGO BASILE). At a fixed speed of 15 revolutions per minute (rpm), mice were pre-trained for two consecutive days until they were able to remain on the rod for more than 60 seconds. […] The latency to fall was recorded for a maximum recording time of 600 seconds. The behavior was monitored by a video camera.
This test was carried out by leaving a pole in the cage where the mice were housed. The pole test was performed on the 14th day after MPTP injection as previously described (9). The mouse was placed in a head-upward position on top of a vertical pole (diameter 8 mm, height 55 cm) with a ball (diameter 2.5 cm) on the head of the pole. The pole was wrapped with the nylon gauze to prevent the mouse from slipping down. Each mouse was trained twice before testing. The time that the mouse took to turn his head from upward to downward (Time: Turn) and the time the mouse took to reach the floor with his forepaws (Time: Locomotion Activity) were recorded. Each mouse was tested three times with 5 min. intervals, and the average time was quantified.

[2] = test system: M17 human neuroblastoma cells; assay: Glycolysis and mitochondrial function in M17 cells; details: in vitro, 10 μM, 24 hr (ECAR)
Protocol: Cells were incubated with mild hypoxia for 12 hr before study. Cells were cultured in a sealed chamber (Stemcell Technologies Vancouver, Canada) that was flushed with a humidified gas mixture composed of 5% 02, 5% carbon dioxide (CO2), and 90% nitrogen (N2) for 12 hr. […] Assays of ATP, pyruvate, and citrate synthase activities (CS) were performed according to the manufacturer's instructions.
A Seahorse XV analyzer (XF^e-24, Seahorse Bioscience, Billerica, Mass., USA) was used to measure the oxygen consumption rate (OCR) and the extracellular acidification rate (ECAR) as previously described (18). The M17 cells and iPS cells were seeded in XF^e 24-well plates (Seahorse Bioscience), while the plates used for iPS cells were poly-D-lysine pre-coated. Assay medium was prepared by supplementing Seahorse XF^eBaseMedium minimal DMEM (Seahorse Bioscience) with 2 mM L-glutamine for a Glycolysis Stress Test assay or 2 mM L-glutamine, 1 mM pyruvate and 10 mM glucose for a Mito Stress Test assay (Sigma). pH was adjusted to 7.4 at 37° C. Probes (Seahorse Bioscience) were hydrated in the calibrant (Seahorse Bioscience) in a non-CO2 incubator at 37° C. overnight. Cells were washed twice with assay medium and kept in a non-CO2 incubator at 37° C. for 1 hr before analysis. Glucose, oligomycin and 2-deoxy-glucose (2-DG) were pre-loaded in the probe plate for Glycolysis Stress Test, while oligomycin, FCCP and a mixture of rotenone and antimycin A were used for Mito Stress Test.
Citrate synthase (CS) activity, LDH assay and pyruvate level were detected using commercial kits according to the manufacturer's directions. ATP content in animal tissues and M17 cells were detected with the ATP assay kit following the manufacturer's directions.

[3] = test system: Hela cell stably expressed FUS-GFP; assay: Hela cells stably expressing FUS-GFP; format: cell-based
Text: FIG. 19. Relative ATP levels in Hela cells expressing FUS-GTP after treatment with alfazosin (AZ) and rotenone (Rot).
FIG. 20. Expression levels of FUS-GTP in cells treated with alfazosin (AZ), rotenone (Rot), and 17AAG, an inhibitor of the ATPase of HSP90.
FIG. 21. Fluorescence recovery of FUS-GTP in Hela cells after photobleaching.
We studied Hela cell stably expressed FUS-GFP to determine whether alfazosin (AZ) affected the molecule biology of FUS. (See FIG. 19). FUS forms phase-separated aggregates in cells and is commonly used to test agents that enhance or inhibit aggregate formation. The cells were maintained under mild hypoxic condition (5% oxygen), in which mitochondria function at their highest level. Alfazosin (AZ) was added in the culture medium with or without rotenone, a mitochondrial respiration inhibitor. 60 hours later, we measured the ATP level. The control (without AZ) is set as 1 (N=3).
We quantified FUS-GFP protein levels using actin as a protein loading control. (See FIG. 20). Rotenone (Rot) is a mitochondrial respiration inhibitor, 17AAG is an inhibitor of the ATPase of HSP90. The control level of FUS/actin is set as 1, and relative ratio of other treatment is compared.
(See FIG. 21). After 30 seconds photobleaching, the recovery of GFP signal was measured and plotted. N=10.

[4] = test system: Hek293T cells expressing APPswe-GFP; assay: Hek293T cells transfected with APPswe-GFP; format: cell-based; details: 24 hours
Text: FIG. 22. Expression of amyloid precursor protein (APP) Swedish mutation tagged with GFP (APPswe-GFP) in transfected Hek293T cells. Left panel—expression of GFP in cells treated with alfazosin (AZ). Right panel—relative intensity versus treatment with increasing concentrations of AZ.
FIG. 23. Western blot quantification of APPswe-GFP in transfected Hek293T cells treated with increasing concentration of alfazosin (AZ).
We also studied Hek293T cells that were transfected with the amyloid precursor protein (APP) Swedish mutation tagged with GFP (APPswe-GFP). (See FIG. 22). After transfection, AZ (1-10 μM) was added for 24 hours. The GFP intensity without AZ treatment was set as 1.
AZ (1-100 μM) was added for 24 hours to Hek293T cells expressing APPswe-GFP. Then, cell lysates were collected for protein quantification by western blot. (See FIG. 23). The APP/actin ratio was plotted.

SMILES	tyrosine hydroxylase levels in MPTP-treated mice [1]	glycolysis [2]	ATP increase with rotenone ([3]; 5% oxygen, 60 hours, with rotenone)	ATP level ([3]; 5% oxygen, 60 hours, without rotenone)	FUS-GFP protein levels ([3]; FUS/actin, western)	aggregation of APPswe-GFP (GFP intensity) ([4]; AZ 1-10 μM)	APPswe-GFP levels (APP/actin ratio, western blot) ([4]; AZ 1-100 μM)
COc1cc2nc(N3CCN(C(=O)C4COc5ccccc5O4)CC3)nc(N)c2cc1OC (stereo not drawn) [doxazosin]	increased	increased	–	–	–	–	–
COc1cc2nc(N(C)CCCNC(=O)C3CCCO3)nc(N)c2cc1OC (stereo not drawn) [alfuzosin]	increased	increased	abolished	increases	reduced	decrease	reduces
